Values of other authors as cited in patent publication US20250312371A1, “CROSS-LINKED POLYMERIC CHELATORS COMPOSITIONS AND USE THEREOF” (THE UNIVERSITY OF KANSAS, priority 2021, published 2025).

Structure (SMILES): O=C(N[C@H]1COC(=O)[C@@H](NC(=O)c2cccc(O)c2O)COC(=O)[C@@H](NC(=O)c2cccc(O)c2O)COC1=O)c1cccc(O)c1O [Enterobactin]
- relative iron binding constant (Fe(III)): 35.5
- Log K (iron chelation): 52
